For this experiment, the system named is primary cortical neurons. The experiment is described as follows: Primary cortical neuron aging model, neuronal survival by NeuN count. The conditions noted are these: run in parallel with the chicory extract. In kind it is cell-based, rat. From the text: A primary cortical culture system to study the effects of compounds on neuronal aging has been developed and applied to study the effects of chicory on neuronal survival. This cell culture system has been developed as a model of neuronal aging in order to mimic processes which occur during normal aging of neurons without a neurotoxic challenge. With this model beneficial effects against physiological neurodegeneration during aging can be studied and compounds which increase neuronal survival can be identified. This is a different approach from the models described in the prior art in which the cells are challenged with a neurotoxic insult in order to induce different degrees of neurodegeneration. Using immune-cytochemical analysis of the antigen, NeuN (Neuronal Nuclei), which is a sensitive marker of neurodegeneration, a reliable method for examining the lifespan of cortical neurons in culture has been established. The sensitivity of NeuN can be attributed to its steady reduction in expression intensity as neurons degenerate, which is in contrast to many antigens whose expression can distinguish only between living and dead neurons. Between four and six weeks after plating, the cortical neurons begin to degenerate, leading to a […] in NeuN count over this time (FIG. 1A). […] All tests were fixed at a time point between 6 and 8 weeks. […]

Molecules are shown by their SMILES.

On to `O=C(Nc1cccc([N+](=O)[O-])c1)c1cccc(S(=O)(=O)N2CCCCCC2)c1` [AK-1], for which the “neuroprotective effect of the positive control relative to the chicory extract” value is given as “smaller neuroprotective effect than the chicory extract” and the “neuroprotective effect of the positive control versus non-treated cells” value was “significantly positive over non-treated cells”.

Source of the values: US20140113014A1, “CHICORY FOR PREVENTION AND TREATMENT OF NEURODEGENERATION” (NESTEC S.A., priority 2011, published 2014).
